In patent US20100222285A1, “METHOD OF CONTROLLING THE PROLIFERATION OF VASCULAR ENDOTHELIAL CELLS AND INHIBITING LUMEN FORMATION” (Rare Sugar Production Technical Research Laboratories, LLC, priority 2004, published 2010):
“Also recorded” adds a separate entry of the source. Like-named read-outs stand apart in the source and are kept apart here.

Experiments:
[1] = system: Human umbilical cord vascular endothelial cells (HUVEC); experiment: Experiment of growth: HUVEC cell number by WST-8 after 48 hrs; assay type: cell-based; details: for inhibition at 20000 µM: Homo sapiens, HUVEC, 20 mM, read-out: inhibition of growth to the control group; for antagonism of the growth inhibitory effect by D-glucose: co-existence of 20 mM D-glucose
Method: Human umbilical cord vascular endothelial cells (HUVEC) were purchased as primary cultured cells from KURABO (Kurabo Co., Osaka, Japan) and the cells up to P8 were used in experiments. The cells were inoculated on a 96-well plate at a rate of 3000 cells/well, and allowed to stand in Humedia EG2 (Kurabo) overnight (37° C., 5% CO2). Next morning, the medium was replaced by 90 μl of 2% FBS-containing Humedia EB2 (Kurabo), to which was then added 10 μl of additive, and after a lapse of 48 hrs the number of cells was counted. No medium was exchanged during this period. In counting, a tetrazolium salt WST-8 was added to each well (0.5 mM), and after 2 hrs the absorbance was measured at 450 nm. The tetrazolium salt added was reduced with an intracellular dehydrogenase to yield formazan depending on the number of cells in the well. In advance, the absorbance at 450 nm was confirmed to show a linearity within the range of 500 to 12000 cells in the well.

[2] = cited from earlier work; for Ald type (%): aldehyde structure; for Pira β (%): pyranose β-anomer; for Fra α (%): furanose α-anomer; for Fra β (%): furanose β-anomer
[3] = system: human endothelial cells and fibroblasts; experiment: Experiment of luminal formation: concurrent culture, CD31 staining, area of the lumen; assay type: cell-based; details: for effect on the luminal formation: Example 1, 0.1-20 mM, 10 days; for effect on the luminal formation of HUVEC: Example 2 (36 species), incubation for 10 days; for inhibition at 20000 µM: 20 mM; for antagonism of the luminal formation inhibitory effect by D-glucose: co-existence of 20 mM D-glucose; for inhibition of the acceleration of luminal formation by VEGF: with VEGF
Method: Using a concurrent culture system of human endothelial cells and fibroblasts planted on a 24-well plate (Kurabo Co., Osaka, Japan), the culture medium was replaced by culture media containing a variety of additives at the early stage of luminal formation. Every 3 days, the medium was exchanged with the additive; 10 day after incubation, the endothelial cell only was stained by using mouse anti-human CD31 antibody (Kurabo Co., Osaka, Japan), goat anti-mouse IgG AlkP Conjugate (Kurabo Co., Osaka, Japan), and BCPI (5-bromo-4-chloro-3-indolyl phosphate) (Kurabo Co., Osaka, Japan) to photograph. The visualized area of the lumen was measured by means of NIH image software.

[4] = Example 2 (36 species), 48 hours

## O=C(CO)[C@@H](O)[C@@H](O)[C@H](O)CO [TAG, D-tagatose]
[1]; [4]
  effect on the growth of HUVEC: no remarkable effect

## O=C[C@@H](O)[C@@H](O)[C@H](O)CO [Lyxose]
[2]
  Ald type (%): 0.4%
  Pira β (%): 28%
[2]; chair form of pyranose α
  C1/1C: mix

## O=C[C@H](O)[C@H](O)[C@H](O)CO [RIB, D-ribose]
[3]
  effect on the luminal formation: effect was confirmed
  effect on the luminal formation of HUVEC: inhibitory effect was observed
  antagonism of the luminal formation inhibitory effect by D-glucose: no apparent effect
  inhibition of the acceleration of luminal formation by VEGF: inhibit the acceleration by VEGF
[3]; Homo sapiens
  inhibition at 20000 µM: 50 to 80%
[1]; Example 1, 0.1-20 mM, 48 hrs
  effect on the growth of HUVEC: no influence

## O=C[C@H](O)[C@@H](O)[C@H](O)[C@H](O)CO [D-glucose]
[3]
  effect on the luminal formation: does not inhibit
[2]; in an aqueous solution
  share of the chair type C1: ~100%
[1]; Example 1, 0.1-20 mM, 48 hrs
  effect on the growth of HUVEC: no difference; also recorded: does not inhibit

## O=CC[C@H](O)[C@H](O)CO [DRI, 2-deoxy-D-ribose]
[3]
  effect on the luminal formation: effect was confirmed
  effect on the luminal formation of HUVEC: inhibitory effect was observed; also recorded: strong action
  antagonism of the luminal formation inhibitory effect by D-glucose: no apparent effect
  inhibition of the acceleration of luminal formation by VEGF: inhibit the acceleration by VEGF
[3]; Homo sapiens, 1 mM
  inhibition at 1000 µM: ~20%
[3]; Homo sapiens, 2.5 mM
  inhibition at 2500 µM: > 95%
[1]; Example 1, 0.1-20 mM, 48 hrs
  effect on the growth of HUVEC: effect was confirmed
[1]; [4]
  effect on the growth of HUVEC: inhibitory effect was observed
[1]; 48 hrs
  inhibition at 20000 µM: 40 to 80%
[1]
  antagonism of the growth inhibitory effect by D-glucose: no antagonism

## O=C[C@H](O)[C@H](O)[C@H](O)CO [Ribose]
[2]
  Ald type (%): 8.5%
  Fra α (%): 6%
  Fra β (%): 18%
  Pira β (%): 56%
[2]; chair form of pyranose α
  C1/1C: mix
[2]; chair form of pyranose β
  C1/1C: mix

## O=C[C@@H](O)[C@@H](O)[C@@H](O)CO [LRI, L-ribose]
[3]
  effect on the luminal formation: effect was confirmed
  effect on the luminal formation of HUVEC: inhibitory effect was observed
  antagonism of the luminal formation inhibitory effect by D-glucose: no apparent effect
  inhibition of the acceleration of luminal formation by VEGF: inhibit the acceleration by VEGF
[3]; Homo sapiens
  inhibition at 20000 µM: 50 to 80%
[1]; Example 1, 0.1-20 mM, 48 hrs
  effect on the growth of HUVEC: no influence

## O=C[C@@H](O)[C@H](O)[C@@H](O)[C@H](O)CO [Idose]
[2]; chair form of pyranose α
  C1/1C: mix
[2]
  Fra α (%): 16%
  Fra β (%): 16%
  Pira β (%): 37%

## O=C[C@@H](O)[C@H](O)[C@H](O)[C@H](O)CO [ALT, D-altrose]
[3]
  effect on the luminal formation: effect was confirmed
  effect on the luminal formation of HUVEC: inhibitory effect was observed
  antagonism of the luminal formation inhibitory effect by D-glucose: no apparent effect
  inhibition of the acceleration of luminal formation by VEGF: inhibit the acceleration by VEGF
[3]; Homo sapiens
  inhibition at 20000 µM: 50 to 80%
[1]; Example 1, 0.1-20 mM, 48 hrs
  effect on the growth of HUVEC: no influence

## O=C(CO)[C@H](O)[C@@H](O)[C@@H](O)CO [LFR, L-fructose]
[1]; [4]
  effect on the growth of HUVEC: no remarkable effect

## O=C[C@H](O)C[C@H](O)[C@H](O)CO [3DG, 3-deoxy-D-glucose]
[3]
  effect on the luminal formation: effect was confirmed
  effect on the luminal formation of HUVEC: inhibitory effect was observed
  antagonism of the luminal formation inhibitory effect by D-glucose: no apparent effect
[3]; listed as 3-deoxy-D-glucose
  effect on the luminal formation: inhibit both
[3]; Homo sapiens
  inhibition at 20000 µM: 50 to 80%
[1]; Example 1, 0.1-20 mM, 48 hrs
  effect on the growth of HUVEC: effect was confirmed
[1]; Example 1, 0.1-20 mM, 48 hrs, listed as 3-deoxy-D-glucose
  effect on the growth of HUVEC: inhibit both
[1]; [4]
  effect on the growth of HUVEC: inhibitory effect was observed
[1]; 48 hrs
  inhibition at 20000 µM: 40 to 80%
[1]
  antagonism of the growth inhibitory effect by D-glucose: antagonized

## O=C[C@H](O)[C@H](O)[C@@H](O)[C@H](O)CO [GUL, D-gulose]
[3]
  effect on the luminal formation: effect was confirmed
  effect on the luminal formation of HUVEC: inhibitory effect was observed
  antagonism of the luminal formation inhibitory effect by D-glucose: no apparent effect
  inhibition of the acceleration of luminal formation by VEGF: inhibit the acceleration by VEGF
[3]; Homo sapiens
  inhibition at 20000 µM: 50 to 80%
[1]; Example 1, 0.1-20 mM, 48 hrs
  effect on the growth of HUVEC: no influence

## O=C[C@@H](O)[C@@H](O)[C@@H](O)[C@H](O)CO [TAO, D-talose]
[3]
  effect on the luminal formation: effect was confirmed
  effect on the luminal formation of HUVEC: inhibitory effect was observed
[3]; Homo sapiens
  inhibition at 20000 µM: 50 to 80%
[1]; Example 1, 0.1-20 mM, 48 hrs
  effect on the growth of HUVEC: no influence

## O=C(CO)[C@@H](O)[C@@H](O)[C@H](O)CO [Tagatose]
[2]; pyranose α-anomer
  Pira α (%): 89%
[2]
  Pira β (%): 11%
